From patent US20150329558A1, “FUSED HETEROCYCLIC COMPOUNDS AS ION CHANNEL MODULATORS” (Gilead Sciences, Inc., priority 2011, published 2015)
“And” between values parts separate entries of the source, which are not always exact repeats. Identical values can stand only once. Like-named read-outs stand apart in the source and are kept apart here.

Tests used:
[1] = Microsomal stability assay, dog; format: in vitro ADME; details: metabolic stability, dog liver microsomes 0.5 mg/mL, substrate 3 uM
Procedure, shortened: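 Liver microsomes at 0.5 mg/mL protein in 100 mM KPO4 buffer, incubated with 3 uM compound and NADPH-regenerating system, run in duplicate. Samples taken at 2, 12, 25, 45 and 65 min and quenched in MeOH/ACN/water before analysis.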

hERG potassium channel = hERG potassium channel (Homo sapiens, UniProt Q12809); test: hERG screening assay (PatchXpress, CHO cells); format: cell-based; details: for HERG*: % inhibition at 1 μM
Experimental: Compounds were also tested for their effect to block the hERG K^+ channel.
Compounds were screened to test their activity in blocking the hERG potassium channel at AVIVA Biosciences (San Deigo, Calif., USA). The hERG channel is heterologously expressed in a CHO (Chinese Hamster Ovary) cell line. Cells were maintained with standard tissue culture procedures and stable channel expression was maintained with 500 μg/mL G418 in the culture medium. Cells were harvested for testing on the PatchXpress 7000A automated patch clamp with Accumax (Innovative Cell Technologies, San Diego, Calif.) to isolate single cells.
The following solutions were used for electrophysiological recordings. The external solution contained: 2 mM CaCl2; 2 mM MgCl2; 4 mM KCl; 150 mM NaCl; 10 mM Glucose; 10 mM HEPES (pH 7.4 with 1M NaOH; osmolarity, ˜310 mOsm). The internal solution contained: 140 mM KCl, 10 mM MgCl2, 6 mM EGTA, 5 mM HEPES, 5 mM ATP (pH adjusted to 7.25 with KOH; osmolarity, ˜295 mOsm).
hERG channels were activated when the voltage was first stepped to −50 mV for 300 ms from the −80 mV holding potential and then stepped to +20 mV for 5 seconds. At +20 mV the channels open and then largely inactivate, so the currents are relatively small. Upon returning to −50 mV from +20 mV, hERG currents transiently become much larger as inactivation is rapidly removed and then the channel closes. The first step to −50 mV for 300 ms was used as a baseline for measuring the peak amplitude during the step to −50 mV after channel activation. The peak tail current at −50 mV was measured both under control conditions and after addition of compound, each cell serving as its own control.
All compounds were prepared as 10 mM DMSO stocks in glass vials. Stock solutions were mixed by vigorous vortexing and sonication for about 2 minutes at room temperature. For testing, compounds were diluted in glass vials using an intermediate dilution step in pure DMSO and then further diluted to working concentrations in external solution. Dilutions were prepared no longer than 20 minutes before use.
For the electrophysiological recordings, after achieving the whole-cell configuration, cells were monitored for 90 seconds to assess stability and washed with external solution for 66 seconds. The voltage protocol described above was then applied to the cells every 12 seconds and throughout the whole procedure. Only cells with stable recording parameters and meeting specified health criteria were allowed to enter the compound addition procedure.
External solution containing 0.1% DMSO (vehicle) was applied to the cells first to establish the control peak current amplitude. After allowing the current to stabilize for 3 to 5 minutes, 1 μM and then 10 μM test compounds were applied. Each compound concentration was added 4 times and cells were kept in test solution until the effect of the compound reached steady state or for a maximum of 12 minutes. After addition of test compound, a positive control (1 μM Cisapride) was added and must block >95% of the current for the experiment to be considered valid. Washout in the external solution compartment was performed until the recovery of the current reached steady state.

[2] = target: wild-type human cardiac sodium channel, hNav1.5 (late INa) (Homo sapiens, UniProt Q14524); test: Late INa screening assay (QPatch whole cell patch clamp); format: cell-based
Procedure, shortened: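 HEK293 cells stably expressing hNav1.5 alpha subunit without beta subunits, QPatch automated whole-cell clamp at 23-25° C, CsF-based internal solution pH 7.4. Late INa induced by 10 μM tefluthrin; 250 ms steps to −20 mV from −120 mV at 0.1 Hz, compounds at 1 μM. Percent block of mean current 225–250 ms into the step.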

[3] = % inhibition at 1 μM, read-out: NAv1.5*-LATE-
[4] = percent block of late INa, compound at 1 μM, 10 μM Tefluthrin, HEK293 hNav1.5, read-out: Late INa 1 μM

Sequence of wild-type human cardiac sodium channel, hNav1.5 (late INa) (Q14524 whole entry): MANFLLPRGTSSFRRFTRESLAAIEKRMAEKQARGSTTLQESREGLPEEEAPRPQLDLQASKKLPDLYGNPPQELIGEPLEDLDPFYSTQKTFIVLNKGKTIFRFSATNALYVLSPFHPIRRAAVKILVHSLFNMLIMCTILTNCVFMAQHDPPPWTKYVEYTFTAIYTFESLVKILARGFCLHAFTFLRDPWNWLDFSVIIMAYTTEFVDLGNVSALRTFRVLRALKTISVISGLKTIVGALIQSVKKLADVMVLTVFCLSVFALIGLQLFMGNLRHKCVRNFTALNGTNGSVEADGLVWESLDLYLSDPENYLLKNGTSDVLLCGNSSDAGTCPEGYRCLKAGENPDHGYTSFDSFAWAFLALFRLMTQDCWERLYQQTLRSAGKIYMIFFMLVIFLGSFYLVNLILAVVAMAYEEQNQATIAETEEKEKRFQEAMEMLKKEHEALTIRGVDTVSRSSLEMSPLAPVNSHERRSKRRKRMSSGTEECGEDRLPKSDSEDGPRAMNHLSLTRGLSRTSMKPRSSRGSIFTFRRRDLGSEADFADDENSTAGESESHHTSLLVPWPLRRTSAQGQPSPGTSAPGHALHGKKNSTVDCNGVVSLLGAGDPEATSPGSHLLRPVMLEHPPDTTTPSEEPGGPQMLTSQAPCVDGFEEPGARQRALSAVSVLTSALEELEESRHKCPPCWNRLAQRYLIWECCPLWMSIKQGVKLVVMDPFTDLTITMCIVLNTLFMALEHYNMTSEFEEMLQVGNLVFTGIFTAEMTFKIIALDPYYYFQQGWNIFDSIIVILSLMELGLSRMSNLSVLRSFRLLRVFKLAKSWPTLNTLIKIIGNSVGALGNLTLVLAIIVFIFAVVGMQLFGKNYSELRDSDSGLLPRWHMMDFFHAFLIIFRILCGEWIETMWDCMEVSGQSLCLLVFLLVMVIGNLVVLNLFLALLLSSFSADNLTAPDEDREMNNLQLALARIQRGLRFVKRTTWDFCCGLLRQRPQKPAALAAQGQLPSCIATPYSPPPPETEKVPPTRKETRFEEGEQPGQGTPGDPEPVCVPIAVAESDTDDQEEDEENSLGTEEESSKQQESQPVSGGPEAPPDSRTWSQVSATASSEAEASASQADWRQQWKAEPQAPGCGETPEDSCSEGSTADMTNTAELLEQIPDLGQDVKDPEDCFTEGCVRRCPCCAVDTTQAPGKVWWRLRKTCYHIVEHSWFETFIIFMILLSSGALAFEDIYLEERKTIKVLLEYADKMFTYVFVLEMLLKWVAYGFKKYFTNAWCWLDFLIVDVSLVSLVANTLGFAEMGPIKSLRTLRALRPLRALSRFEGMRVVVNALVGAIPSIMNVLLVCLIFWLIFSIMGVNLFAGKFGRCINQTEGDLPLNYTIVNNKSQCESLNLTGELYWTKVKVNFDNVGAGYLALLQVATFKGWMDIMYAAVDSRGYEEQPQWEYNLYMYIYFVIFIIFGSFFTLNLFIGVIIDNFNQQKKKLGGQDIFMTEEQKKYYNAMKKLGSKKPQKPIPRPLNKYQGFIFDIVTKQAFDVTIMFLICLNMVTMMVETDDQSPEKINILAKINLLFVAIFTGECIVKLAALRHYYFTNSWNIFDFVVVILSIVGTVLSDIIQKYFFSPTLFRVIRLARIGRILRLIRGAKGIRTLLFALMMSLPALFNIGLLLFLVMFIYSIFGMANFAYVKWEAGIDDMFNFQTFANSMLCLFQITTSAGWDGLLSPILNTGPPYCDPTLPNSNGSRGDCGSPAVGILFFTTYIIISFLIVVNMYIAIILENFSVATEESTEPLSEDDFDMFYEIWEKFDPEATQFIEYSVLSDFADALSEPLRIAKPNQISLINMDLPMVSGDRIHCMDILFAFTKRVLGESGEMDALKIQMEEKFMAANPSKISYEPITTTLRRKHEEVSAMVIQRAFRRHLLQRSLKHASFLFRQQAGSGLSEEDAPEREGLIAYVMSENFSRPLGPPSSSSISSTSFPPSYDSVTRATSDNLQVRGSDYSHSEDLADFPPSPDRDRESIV
Sequence of hERG potassium channel (Q12809 whole entry): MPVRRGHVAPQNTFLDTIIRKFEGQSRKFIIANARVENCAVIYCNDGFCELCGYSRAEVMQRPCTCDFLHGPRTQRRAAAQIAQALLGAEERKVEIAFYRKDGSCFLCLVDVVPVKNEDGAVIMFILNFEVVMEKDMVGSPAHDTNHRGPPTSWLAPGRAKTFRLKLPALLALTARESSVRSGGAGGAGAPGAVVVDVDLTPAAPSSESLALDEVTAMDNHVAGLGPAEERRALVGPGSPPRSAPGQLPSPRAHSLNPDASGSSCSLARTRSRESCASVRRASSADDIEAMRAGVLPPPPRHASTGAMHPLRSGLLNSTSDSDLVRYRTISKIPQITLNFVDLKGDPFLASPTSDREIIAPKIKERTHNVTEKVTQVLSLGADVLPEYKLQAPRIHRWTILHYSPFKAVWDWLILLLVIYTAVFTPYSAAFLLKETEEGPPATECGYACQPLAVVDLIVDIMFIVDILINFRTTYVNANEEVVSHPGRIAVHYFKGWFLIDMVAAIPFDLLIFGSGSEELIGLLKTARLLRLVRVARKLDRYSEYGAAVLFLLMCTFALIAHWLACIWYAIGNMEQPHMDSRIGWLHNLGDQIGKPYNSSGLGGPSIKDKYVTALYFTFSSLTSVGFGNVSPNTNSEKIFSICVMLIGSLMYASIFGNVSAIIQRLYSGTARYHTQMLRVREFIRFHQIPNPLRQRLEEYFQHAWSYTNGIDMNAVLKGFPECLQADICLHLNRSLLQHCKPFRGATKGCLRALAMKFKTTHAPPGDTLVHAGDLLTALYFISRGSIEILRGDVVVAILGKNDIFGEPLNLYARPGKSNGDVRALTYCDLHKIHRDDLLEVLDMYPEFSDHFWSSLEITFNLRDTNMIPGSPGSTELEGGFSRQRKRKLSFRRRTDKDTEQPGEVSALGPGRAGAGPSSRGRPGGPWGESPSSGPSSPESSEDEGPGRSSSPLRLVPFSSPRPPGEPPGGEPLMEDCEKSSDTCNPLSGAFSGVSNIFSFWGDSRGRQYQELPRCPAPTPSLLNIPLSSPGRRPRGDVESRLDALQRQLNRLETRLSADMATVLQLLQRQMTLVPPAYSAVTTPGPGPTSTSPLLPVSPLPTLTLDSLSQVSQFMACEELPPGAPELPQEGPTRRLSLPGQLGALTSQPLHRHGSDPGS

| SMILES | MS Dog THalf [1] [min] | HERG* (hERG potassium channel) | inhibition at 10 µM (hERG potassium channel; human, CHO cells that heterologously express the hERG channel, pH 7.4, at 10 μM) [%] | inhibition at 1 µM [2, 3] [%] | inhibition at 1 µM [2, 4] [%] |
| --- | --- | --- | --- | --- | --- |
| Cc1noc(Cn2nnc3ccc(-c4ccc(OC(F)(F)F)cc4)cc3c2=O)n1 [II-3, 3-((3-methyl-1,2,4-oxadiazol-5-yl)methyl)-6-(4-(trifluoromethoxy)phenyl)benzo[d][1,2,3]triazin-4(3H)-one] | 303 | 15.5% and 16% | 24.5 | 53 | 53 |
| O=c1c2cc(-c3ccc(OC(F)(F)F)cc3)ccc2nnn1Cc1noc(C2CC2)n1 [II-14, 3-((5-cyclopropyl-1,2,4-oxadiazol-3-yl)methyl)-6-(4-(trifluoromethoxy)phenyl)benzo[d][1,2,3]triazin-4(3H)-one] | 284 | <10% |  | 68 | 68 |
| O=c1c2cc(-c3ccc(OC(F)(F)F)cc3)ccc2nnn1CCc1ccncn1 [II-17, 3-(2-(pyrimidin-4-yl)ethyl)-6-(4-(trifluoromethoxy)phenyl)benzo[d][1,2,3]triazin-4(3H)-one] | 50 | 42% |  | 61 | 61 |
| O=c1c2cc(-c3ccc(OC(F)(F)F)cc3)ccc2nnn1CCc1ncccn1 [II-18, 3-(2-(pyrimidin-2-yl)ethyl)-6-(4-(trifluoromethoxy)phenyl)benzo[d][1,2,3]triazin-4(3H)-one] | 74 | 30% |  | 66 | 66 |
| O=c1c2cc(-c3ccc(OC(F)(F)F)cc3)ccc2nnn1CCOc1ncccn1 [II-32, 3-(2-(pyrimidin-2-yloxy)ethyl)-6-(4-(trifluoromethoxy)phenyl)benzo[d][1,2,3]triazin-4(3H)-one] | 36 | 45% |  | 64 | 64 |
| N#Cc1ccnc(OCCn2nnc3ccc(-c4ccc(OC(F)(F)F)cc4)cc3c2=O)n1 [II-36, 2-(2-(4-oxo-6-(4-(trifluoromethoxy)phenyl)benzo[d][1,2,3]triazin-3(4H)-yl)ethoxy)pyrimidine-4-carbonitrile] | 124 | 21% |  | 43 | 43 |
| O=c1c2cc(-c3ccc(OC(F)(F)F)cc3)ccc2nnn1C1CCNCC1 [II-38, 3-(piperidin-4-yl)-6-(4-(trifluoromethoxy)phenyl)benzo[d][1,2,3]triazin-4(3H)-one] | 68 | 58% |  | 33 | 33 |
| O=c1c2cc(-c3ccc(OC(F)(F)F)cc3)ccc2nnn1CC1(CN2CCOCC2)CC1 [II-40, 3-((1-(morpholinomethyl)cyclopropyl)methyl)-6-(4-(trifluoromethoxy)phenyl)benzo[d][1,2,3]triazin-4(3H)-one] | 2 | 81% |  | 48 | 48 |
| O=c1c2cc(-c3ccc(OC(F)(F)F)cc3)ccc2nnn1Cc1noc(-c2ccccn2)n1 [II-54, 3-((5-(pyridin-2-yl)-1,2,4-oxadiazol-3-yl)methyl)-6-(4-(trifluoromethoxy)phenyl)benzo[d][1,2,3]triazin-4(3H)-one] | 28 | 23% |  | 52 | 52 |
| O=c1c2cc(-c3ccc(OC(F)(F)F)cc3)ccc2nnn1Cc1nnc(C2CC2)o1 [II-67, 3-((5-cyclopropyl-1,3,4-oxadiazol-2-yl)methyl)-6-(4-(trifluoromethoxy)phenyl)benzo[d][1,2,3]triazin-4(3H)-one] | 270 | 41% |  | 47 | 47 |
| Cc1ncc(Cn2nnc3ccc(-c4ccc(OC(F)(F)F)cc4)cc3c2=O)o1 [II-95, 3-((2-methyloxazol-5-yl)methyl)-6-(4-(trifluoromethoxy)phenyl)benzo[d][1,2,3]triazin-4(3H)-one] | 169 | <10% |  | 36 | 36 |
| Cc1noc(Cn2cnc3ccc(-c4ccc(OC(F)(F)F)cc4)cc3c2=O)n1 [IV-6, 3-((3-methyl-1,2,4-oxadiazol-5-yl)methyl)-6-(4-(trifluoromethoxy)phenyl)quinazolin-4(3H)-one] | 158 | <10% |  | 49 | 49 |
| Cc1nc(Cn2cnc3ccc(-c4ccc(OC(F)(F)F)cc4)cc3c2=O)no1 [IV-9, 3-((5-methyl-1,2,4-oxadiazol-3-yl)methyl)-6-(4-(trifluoromethoxy)phenyl)quinazolin-4(3H)-one] | 356 | <10% |  | 42 | 42 |
| O=C1c2cc(-c3ccc(OC(F)(F)F)cc3)ccc2OCN1Cc1ncccn1 [VIII-20, 3-(pyrimidin-2-ylmethyl)-6-(4-(trifluoromethoxy)phenyl)-2H-benzo[e][1,3]oxazin-4(3H)-one] |  | <10% |  | 62 | 62 |

Continued, in another order:

| MS Dog THalf [1] [min] | SMILES | HERG* (hERG potassium channel) | inhibition at 10 µM (hERG potassium channel; human, CHO cells that heterologously express the hERG channel, pH 7.4, at 10 μM) [%] | inhibition at 1 µM [2, 3] [%] | inhibition at 1 µM [2, 4] [%] |
| --- | --- | --- | --- | --- | --- |
| 66 | O=c1c2cc(-c3ccc(OC(F)(F)F)cc3)ccc2cnn1Cc1ncccn1 [III-5, 2-(pyrimidin-2-ylmethyl)-7-(4-(trifluoromethoxy)phenyl)phthalazin-1(2H)-one] | 13% |  | 44 | 44 |
| 27 | O=c1c2cc(-c3ccc(OC(F)(F)F)cc3)ccc2cnn1CCn1cccn1 [III-9, 2-(2-(1H-pyrazol-1-yl)ethyl)-7-(4-(trifluoromethoxy)phenyl)phthalazin-1(2H)-one] | 37% |  | 57 | 57 |
| 129 | COc1cc(OC)nc(Cn2ncc3ccc(-c4ccc(OC(F)(F)F)cc4)cc3c2=O)n1 [III-19, 2-((4,6-dimethoxypyrimidin-2-yl)methyl)-7-(4-(trifluoromethoxy)phenyl)phthalazin-1 (2H)-one] | 23% |  | 56 | 56 |
| 51 | O=c1c2cc(-c3ccc(OC(F)(F)F)cc3)ccc2cnn1CCOc1ncccn1 [III-28, 2-(2-(pyrimidin-2-yloxy)ethyl)-7-(4-(trifluoromethoxy)phenyl)phthalazin-1 (2H)-one] | 51% |  | 75 | 75 |
| 157 | O=C1c2cc(-c3ccc(OC(F)(F)F)cc3)ccc2CCN1Cc1ncccn1 [IX-1, 2-(pyrimidin-2-ylmethyl)-7-(4-(trifluoromethoxy)phenyl)-3,4-dihydroisoquinolin-1(2H)-one] | 17% |  | 32 | 32 |
| 320 | O=C1c2cc(-c3ccc(C(F)(F)F)cc3)ccc2CCN1Cc1ncccn1 [IX-3, 2-(pyrimidin-2-ylmethyl)-7-(4-(trifluoromethyl)phenyl)-3,4-dihydroisoquinolin-1(2H)-one] | 14% |  | 29 | 29 |
| 210 | O=C1c2cc(-c3ccc(C(F)(F)F)cc3)ccc2OCN1Cc1ccccn1 [VIII-1, 3-(pyridin-2-ylmethyl)-6-(4-(trifluoromethyl)phenyl)-2H-benzo[e][1,3]oxazin-4(3H)-one] |  |  | 52 | 52 |
